According to patent publication US20050032757A1, “Nutritional supplements” (priority 2003, published 2005):
Where a name gives a salt, the structure may show the parent alone.

Assay: Evaluation of composition stability of PSE and fish oil mixtures with test reagents
Type: physicochemical
Conditions: fish oil 2 g
Method: Varying amounts of PSE and fish oil were mixed in a 50 ml beaker. The mixture was warmed to 35-40° C. A variety of test reagents, including surfactants and small carboxylic acid esters, were then examined for their ability to stabilize the mixture at room temperature (RT), 40° C., and 50° C.

[1] = Phytosterol 4 g, test reagent 0.10 g
[2] = Phytosterol 4 g, test reagent 0.20 g
[3] = Phytosterol 4 g, test reagent 0.30 g
[4] = Phytosterol 2 g, test reagent 0.10 g
[5] = Phytosterol 4 g, test reagent 0.40 g

Compound | Stability results [1] | Stability results [2] | Stability results [3] | Stability results [4] | Stability results [5] | Stability results (Phytosterol 2 g, test reagent 0.30 g)
O=C(O)CC(O)(CC(=O)O)C(=O)O [Citric Acid] | insoluble | insoluble | insoluble |  |  | 
Polysorbate 80 |  | unstable (unstable (separated quickly, usually less than 1-2 hr)) |  | unstable (unstable (separated quickly, usually less than 1-2 hr)) |  | 
CCOC(=O)/C=C\C(=O)OCC [Diethyl Maleate] | stable (stable (did not separate for 24 hours)) | stable (stable (did not separate for 24 hours)) | insoluble |  |  | 
Polysorbate 60 |  | unstable (unstable (separated quickly, usually less than 1-2 hr)) | unstable (unstable (separated quickly, usually less than 1-2 hr)) | unstable (unstable (separated quickly, usually less than 1-2 hr)) | unstable (unstable (separated quickly, usually less than 1-2 hr)) | 
CCOC(=O)[C@H](O)[C@@H](O)C(=O)OCC [Diethyl L-tartrate] | stable (stable (did not separate for 24 hours)) | stable (stable (did not separate for 24 hours)) | stable (stable (did not separate for 24 hours)) |  |  | 
Polysorbate 20 | unstable (unstable (separated quickly, usually less than 1-2 hr)) | unstable (unstable (separated quickly, usually less than 1-2 hr)) |  |  |  | 
Sodium Isostearyl Lactylate | unstable (unstable (separated quickly, usually less than 1-2 hr)) |  |  |  |  | 
Sodium Caproyl Lactylate |  | unstable (unstable (separated quickly, usually less than 1-2 hr)) |  |  |  | 
CCOC(=O)CC(O)(CC(=O)OCC)C(=O)OCC [Triethyl Citrate] | stable (stable (did not separate for 24 hours)) | stable (stable (did not separate for 24 hours)) | stable (stable (did not separate for 24 hours)) |  | stable (stable (did not separate for 24 hours)) | unstable (unstable (separated quickly, usually less than 1-2 hr))
OCC(O)CO [Glycerin] | insoluble |  |  |  |  | 
Sorbitan Oleate | unstable (unstable (separated quickly, usually less than 1-2 hr)) | unstable (unstable (separated quickly, usually less than 1-2 hr)) | unstable (unstable (separated quickly, usually less than 1-2 hr)) |  | unstable (unstable (separated quickly, usually less than 1-2 hr)) | 
